The source of these data is patent US20210113492A1, “METHOD FOR INHIBITING PROLIFERATION AND METASTASIS OF CANCER CELLS BY USING NAPHTHOQUINONE DERIVATIVE” (National Tsing Hua University, priority 2019, published 2021).

≈ marks a conversion by molar mass, not a printed value.

The subject of experiment [1] is human cervical cancer cells (Hela). Briefly: Boyden chamber invasion assay, Hela. It is filed as cell-based. The conditions noted are these: 2.5, 5 and 10 μM, 24 h, dose dependency (FIG. 2E). The protocol: Cells were harvested by […] and resuspended in a serum-free medium with 0.1% BSA. Then, […] of cell suspension (2×10^5 cells) was seeded into the upper insert of SPLInsert with Polyethylene terephthalate (PET) membrane (pore size: 8.0 μm) (SPL Lifesciences, Korea) pre-coated with matrigel (BD Biosciences, San Jose, Calif.). The bottom well of 24-well plate of SPLInsert was filled with cell medium containing 10% FBS with different concentrations of isoplumbagin (5, 7.5 and 10 μM, Experimental group of oral squamous cell carcinoma cells (OC3-IV2); 2.5, 5 and 10 μM, Experimental groups of human primary glioblastoma cells (U87), human non-small cell lung carcinoma cells (H1299), human prostate cancer cells (PC3) and human cervical cancer cells (Hela)) or without isoplumbagin (DMSO added). […] Number of cells was counted using Image J. Relative invasion ability was calculated as cell number per area.
FIGS. 2A-2E show the inhibitory effect of different doses of isoplumbagin on invasion for oral squamous cell carcinoma cells (OC3-IV2), human primary glioblastoma cells (U87), human non-small cell lung carcinoma cells (H1299), prostate cancer cells (PC3) and cervical cancer cells (Hela) assessed with the Boyden chamber assays. *Compared with solvent control (DMSO). […]

Experiment [2] has as its system human primary glioblastoma cells (U87). Put plainly: MTT survival assay, U87. The conditions noted are these: 48 h, read-out: IC50, survival rate. Type of experiment: cell-based. The protocol:
According to the present invention, Human primary glioblastoma cell line U87 were obtained from the American Type Culture Collection (ATCC® HTB-14™, Manassas, Va., USA) and grown in DMEM medium supplemented with 10% FBS, 1% MEM Non-Essential Amino Acids Solution (Invitrogen) and 1% penicillin/streptomycin (Invitrogen). The incubator was maintained at 5% CO2 and a constant temperature of 37° C., and the culture medium was changed every two days.
Isoplumbagin (AKOS006277326, acquired from AKos GmbH, Steinen, Germany) was dissolved in dimethyl sulfoxide (DMSO) and added to the medium, so that the final concentration of DMSO was less than 0.1%. The survival rate of isoplumbagin on OC3-IV2, U87, H1299 and PC3 cell lines was determined using the 3-(4,5-dimethylthiazol-2-yl)-2,5-diphenyltetrazolium bromide (MTT; Sigma-Aldrich) assays. 3×10^3 cells/well were seeded in 96-well plates. After incubation for 24 h, cells were treated with isoplumbagin at various concentrations (0, 1, 5, 10, 25, 50 and 100 μM) and incubated for a further 48 h. At the end of treatment, 10 μL 5 mg/mL MTT was added to each well. After incubation at 37° C. for 3 h, medium was removed and DMSO was added to each well to dissolve reduced MTT product formazan. The absorbance of dissolved formazan was measured at 550 nm wavelengths by a spectrophotometer. […]
In general terms: Formazan colour is commonly taken as a measure of viable cells.

The subject of experiment [3] is oral squamous cell carcinoma cells (OC3-IV2). Put plainly: Mitochondrial morphology and distribution by immunofluorescence staining, OC3-IV2. To be noted: 1 μM or 2.5 μM, 24 hours, anti-TOM20 staining. It is filed as cell-based, human. The method, then: The effects of isoplumbagin on mitochondrial morphology and distribution of OC3-IV2, U87, H1299 and PC3 cell lines were measured by immunofluorescence staining After OC3-IV2, U87, H1299, and PC3 cells were treated with DMSO, 1 μM, or 2.5 μM isoplumbagin for 24 hours, cells were fixed by 4% (v/v) paraformaldehyde and permeabilized by 0.1% (v/v) Triton X-100. Cells were incubated in blocking buffer containing 1% bovine serum albumin. After blocking, cells were incubated overnight with indicated primary antibodies against TOM20 (a mitochondria marker, sc-11415, Santa Cruz), and then incubated with Alexa Fluor 488-conjugated secondary antibodies (A11001, Invitrogen). Nucleus was stained with DAPI, actin was stained with rhodamine phalloidin (A12379, Invitrogen) and cells were mounted using Prolong Gold reagent (P36930, Invitrogen). 63 images were taken by LSM800 confocal microscopes (Zeiss).
FIGS. 5A-5D show the effect of isoplumbagin on mitochondrial morphogenesis and distribution of oral squamous cell carcinoma cells (OC3-IV2), human primary glioblastoma cells (U87), human non-small cell lung carcinoma cells (H1299) and human prostate cancer cells (PC3). Cells treated with either solvent control (DMSO) or isoplumbagin were determined by immunofluorescence staining using anti-TOM20 (mitochondria, green) antibody, rhodamine phalloidin (actin, red) and DAPI (nucleus, blue). […]

Broadly, the IC50 is the point on the concentration scale where inhibition reaches its midpoint. Consider `CC1=CC(=O)c2cccc(O)c2C1=O` [isoplumbagin, 5-hydroxy-3-methyl-1,4-naphthoquinone], for which, in experiment [1], the “cancer cells migrating through the membrane (invasion)” value was “decrease significantly”. In addition, in experiment [2], the IC50 turned out to be 0.45 µg/mL (≈ 2.39 µM). In addition, the “mitochondrial morphogenesis and distribution” value in experiment [3] is “can alter the mitochondrial morphogenesis and distribution”.
